Laboratory results as given in BindingDB's records for doi:10.1007/pl00005133 (Eli Lilly, 1998).
Values joined by “and” are separate entries in the source; they are usually repeats but may differ in a detail not shown here. Identical values can stand only once.

Molecular target: 5-hydroxytryptamine receptor 2B (Homo sapiens, UniProt P41595)
Sequence (P41595 whole entry): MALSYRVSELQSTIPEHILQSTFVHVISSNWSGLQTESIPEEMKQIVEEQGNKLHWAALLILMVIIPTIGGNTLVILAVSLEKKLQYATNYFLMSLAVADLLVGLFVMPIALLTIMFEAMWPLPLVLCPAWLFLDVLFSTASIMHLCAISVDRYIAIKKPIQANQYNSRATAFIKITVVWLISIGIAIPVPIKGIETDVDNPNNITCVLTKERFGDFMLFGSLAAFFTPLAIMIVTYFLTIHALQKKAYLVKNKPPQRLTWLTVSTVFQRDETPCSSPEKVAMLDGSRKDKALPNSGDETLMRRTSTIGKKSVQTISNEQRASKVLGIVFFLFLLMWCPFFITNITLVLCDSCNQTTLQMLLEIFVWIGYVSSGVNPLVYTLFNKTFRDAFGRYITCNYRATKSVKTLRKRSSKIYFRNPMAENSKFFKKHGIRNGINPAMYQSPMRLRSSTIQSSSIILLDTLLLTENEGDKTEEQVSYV

Row | SMILES | Ki
1 | Cc1nc2sccn2c(=O)c1CCN1CCC(=C(c2ccc(F)cc2)c2ccc(F)cc2)CC1 | 1.64 nM and 0.4 nM
2 | O=C(CCCN1CCC2(CC1)C(=O)NCN2c1ccccc1)c1ccc(F)cc1 [8-[4-(4-fluorophenyl)-4-oxidanylidene-butyl]-1-phenyl-1,3,8-triazaspiro[4.5]decan-4-one] | 592 nM and 317 nM
3 | c1ccc2c(N3CCNCC3)cccc2c1 | 0.89 nM
4 | CN(C)CCC(c1ccc(Cl)cc1)c1ccccn1 (stereo not drawn) [clorfeniramina] | 6800 nM and 4170 nM
5 | CC(O)C(C)OC(=O)C1CC2c3cccc4c3c(cn4C(C)C)CC2N(C)C1 (stereo not drawn) [CAS_60634-51-7] | 1.53 nM and 0.74 nM
6 | CN1C[C@@H](NS(=O)(=O)N(C)C)C[C@@H]2c3cccc4c3c(cn4C)C[C@H]21 [MESULERGINE] | 3.3 nM and 1.92 nM
7 | CCN(CC)C(=O)[C@@H]1C=C2c3cccc4[nH]c(Br)c(c34)C[C@H]2N(C)C1 [LSD,2-Bromo] | 8.09 nM and 7.47 nM
8 | O=C1NCN(c2ccccc2)C12CCN(CC1COc3ccccc3O1)CC2 (stereo not drawn) [8-(2,3-Dihydro-benzo[1,4]dioxin-2-ylmethyl)-1-phenyl-1,3,8-triaza-spiro[4.5]decan-4-one] | 475 nM and 173 nM
